Data published in patent US6706740B2, “Fungicidal heterocyclic aromatic amides and their compositions, methods of use and preparation” (Dow AgroSciences LLC, priority 1999, dated 2004).
Like-named read-outs stand apart in the source and are kept apart here.

Columns and labels:
[1] = test system: Magnaporthe grisea (Pyricularia oryzae—PYRIOR); assay: microbe, parasite or virus in culture; format: cell-based; details: for inhibition at 25 ppm: Pyricularia oryzae, read-out: PYRIOR in vitro Growth Inhibition
[2] = test system: Rhizoctonia solani (RHIZSO); assay: microbe, parasite or virus in culture; format: cell-based; details: for inhibition at 25 ppm: Rhizoctonia solani, read-out: RHIZSO in vitro Growth Inhibition
[3] = test system: Mycosphaerella graminicola (Septoria tritici—SEPTTR); assay: In vitro fungal growth inhibition, Mycosphaerella graminicola (SEPTTR); format: cell-based; details: for inhibition at 25 ppm: Zymoseptoria tritici, read-out: SEPTTR in vitro Growth Inhibition
[4] = test system: Stagonospora nodorum (Leptosphaeria nodorum—LEPTNO); assay: In vitro fungal growth inhibition, Stagonospora nodorum (LEPTNO); format: cell-based; details: for inhibition at 25 ppm: Leptosphaeria, read-out: LEPTNO in vitro Growth Inhibition
Ustilago maydis (USTIMA) = assay: microbe, parasite or virus in culture; format: cell-based; details: for inhibition at 25 ppm: Mycosarcoma maydis, read-out: USTIMA in vitro Growth Inhibition
[5] = test system: Phytophthora infestans (PHYTIN); assay: microbe, parasite or virus in culture; format: cell-based; details: for inhibition at 25 ppm: Phytophthora infestans, read-out: PHYTIN in vitro Growth Inhibition
[6] = test system: Phytophthora infestans—PHYTIN; assay: whole plant or invertebrate; format: in vivo; details: for pest or weed control at 100 ppm: Phytophthora, in Solanum lycopersicum, 24 h, read-out: PHYTIN in vivo 1 Day Protectant
[7] = test system: Puccinia recondita—PUCCRT; assay: Brown Rust of Wheat, in vivo whole plant, 24 Hour Protectant; details: for pest or weed control at 100 ppm: Puccinia, read-out: PUCCRT in vivo 1 Day Protectant
Erysiphe graminis—ERYSGT = assay: Powdery Mildew of Wheat, in vivo whole plant, 24 Hour Protectant; details: for pest or weed control at 100 ppm: Erysiphe, read-out: ERYSGT in vivo 1 Day Protectant
Septoria tritici—SEPTTR = assay: Leaf Blotch of Wheat, in vivo whole plant, 24 Hour Protectant; details: for pest or weed control at 100 ppm: Zymoseptoria tritici, 24 h, read-out: SEPTTR in vivo 1 Day Protectant
[8] = test system: Leptosphaeria nodorum—LEPTNO; assay: Glume Blotch of Wheat, in vivo whole plant, 24 Hour Protectant; details: for pest or weed control at 100 ppm: Leptosphaeria, read-out: LEPTNO in vivo 1 Day Protectant
[9] = wheat plants sprayed at 100 ppm, inoculated after 24 hours, control of fungal infection vs untreated plants
[10] = 100 ppm spray, 24 hour protectant, wheat, control of fungal infection vs untreated plants
[11] = 100 ppm spray, wheat, 24 hour protectant, control of fungal infection vs untreated plants
[12] = 100 ppm spray, wheat, 24 hour protectant, % control of fungal infection vs untreated plants

SMILES | inhibition at 25 ppm [1] [%] | inhibition at 25 ppm [2] [%] | inhibition at 25 ppm (Ustilago maydis (USTIMA)) [%] | inhibition at 25 ppm [5] [%] | pest or weed control at 100 ppm [6] [%] | inhibition at 25 ppm ([3]; 25 ppm in growth medium) [%] | inhibition at 25 ppm ([4]; 25 ppm in growth medium) [%] | pest or weed control at 100 ppm [7, 11] [%] | pest or weed control at 100 ppm (Erysiphe graminis—ERYSGT; [11]) [%] | pest or weed control at 100 ppm (Septoria tritici—SEPTTR; [11]) [%] | further results
CC(NC(=O)c1ccncc1O)c1ccc(Cl)cc1 (stereo not shown) [Compound 509] | < 80 | < 80 | < 80 | < 80 | < 25 | – | – | – | – | – | inhibition at 25 ppm ([3]; 25 ppm in the growth medium): < 80%; inhibition at 25 ppm ([4]; 25 ppm in the growth medium): < 80%; pest or weed control at 100 ppm [7, 9]: < 25%; pest or weed control at 100 ppm (Erysiphe graminis—ERYSGT; [9]): < 25%; pest or weed control at 100 ppm (Septoria tritici—SEPTTR; [9]): < 25%; pest or weed control at 100 ppm [8, 9]: < 25%
COc1ccnc(C(=O)NC2CCCCCCC2)c1O [Compound 282] | < 80 | < 80 | < 80 | < 80 | < 25 | < 80 | < 80 | – | – | – | pest or weed control at 100 ppm [7, 10]: 25 to 74%; pest or weed control at 100 ppm (Erysiphe graminis—ERYSGT; [10]): < 25%; pest or weed control at 100 ppm (Septoria tritici—SEPTTR; [10]): 25 to 74%; pest or weed control at 100 ppm [8, 10]: 25 to 74%
COc1ccnc(C(=O)NC2CC(C)(C)CC(C)(COCC(Cl)CCl)C2)c1O (stereo not shown) [Compound 257] | < 80 | < 80 | > 80 | > 80 | < 25 | > 80 | > 80 | – | – | – | pest or weed control at 100 ppm [7, 10]: 25 to 74%; pest or weed control at 100 ppm (Erysiphe graminis—ERYSGT; [10]): < 25%; pest or weed control at 100 ppm (Septoria tritici—SEPTTR; [10]): 25 to 74%; LEPTNO in vivo 1 Day Protectant [8, 10]: + +
COc1ccnc(C(=O)Nc2ccc(OCc3ccc(C(F)(F)F)cc3)cc2)c1O [Compound 448] | < 80 | < 80 | > 80 | < 80 | < 25 | < 80 | < 80 | 25 to 74 | < 25 | 25 to 74 | LEPTNO in vivo 1 Day Protectant [8, 11]: + +
O=C(NCc1sccc1Cl)c1nc(Br)ccc1O [Compound 484] | < 80 | < 80 | < 80 | < 80 | < 25 | – | – | – | – | – | inhibition at 25 ppm ([3]; 25 ppm in the growth medium): < 80%; inhibition at 25 ppm ([4]; 25 ppm in the growth medium): < 80%; pest or weed control at 100 ppm [7, 9]: < 25%; pest or weed control at 100 ppm (Erysiphe graminis—ERYSGT; [9]): < 25%; pest or weed control at 100 ppm (Septoria tritici—SEPTTR; [9]): < 25%; pest or weed control at 100 ppm [8, 9]: < 25%
COc1ccnc(C(=O)Nc2ccc(OCc3cccc(C(F)(F)F)c3)cc2)c1O [Compound 447] | < 80 | < 80 | < 80 | < 80 | < 25 | < 80 | < 80 | < 25 | < 25 | < 25 | pest or weed control at 100 ppm [8, 11]: 25 to 74%
COc1ccnc(C(=O)Nc2ccc(Oc3ccc(C(F)(F)F)cc3)cc2)c1O [Compound 425, 3-HYDROXY-4-METHOXY-N-(4-(4-TRIFLUOROMETHYLPHENOXY)PHENYL)-PYRIDINE-2-CARBOXAMIDE] | > 80 | > 80 | < 80 | < 80 | 25 to 74 | > 80 | > 80 | 25 to 74 | < 25 | 25 to 74 | pest or weed control at 100 ppm [8, 11]: < 25%
COc1ccnc(C(=O)N[C@H]2COC(=O)[C@H](Cc3ccccc3)[C@@H](OC(=O)NC(C)C)[C@H](C)OC2=O)c1O [Compound 399] | < 80 | < 80 | < 80 | < 80 | < 25 | < 80 | < 80 | 25 to 74 | < 25 | 25 to 74 | LEPTNO in vivo 1 Day Protectant [8, 11]: + +
COc1ccnc(C(=O)NC2CC(C)(C)C(OC)C(C)(C)C2)c1O (stereo not shown) [Compound 265] | < 80 | < 80 | < 80 | < 80 | < 25 | < 80 | < 80 | – | – | – | pest or weed control at 100 ppm [7, 10]: < 25%; pest or weed control at 100 ppm (Erysiphe graminis—ERYSGT; [10]): 25 to 74%; pest or weed control at 100 ppm (Septoria tritici—SEPTTR; [10]): 25 to 74%; pest or weed control at 100 ppm [8, 10]: 25 to 74%
COc1ccnc(C(=O)Nc2cccc(Oc3cccc(C)c3)c2)c1O [Compound 413] | > 80 | < 80 | < 80 | < 80 | 25 to 74 | > 80 | > 80 | 25 to 74 | < 25 | < 25 | pest or weed control at 100 ppm [8, 11]: < 25%
COc1ccnc(C(=O)N[C@@H]2OC[C@@H](OCc3ccccc3)[C@H](OCc3ccccc3)[C@H]2OCc2ccccc2)c1OC(C)=O [Compound 592] | < 80 | < 80 | < 80 | < 80 | < 25 | – | – | – | – | – | inhibition at 25 ppm ([3]; 25 ppm in the growth medium): < 80%; inhibition at 25 ppm ([4]; 25 ppm in the growth medium): < 80%; pest or weed control at 100 ppm [7, 9]: < 25%; pest or weed control at 100 ppm (Erysiphe graminis—ERYSGT; [9]): < 25%; pest or weed control at 100 ppm (Septoria tritici—SEPTTR; [9]): 25 to 74%; pest or weed control at 100 ppm [8, 9]: 25 to 74%
N#Cc1ccc(Oc2cccc(NC(=O)c3nc(Br)ccc3O)c2)cc1 [Compound 500] | < 80 | < 80 | < 80 | < 80 | < 25 | – | – | – | – | – | inhibition at 25 ppm ([3]; 25 ppm in the growth medium): < 80%; inhibition at 25 ppm ([4]; 25 ppm in the growth medium): < 80%; pest or weed control at 100 ppm [7, 9]: < 25%; pest or weed control at 100 ppm (Erysiphe graminis—ERYSGT; [9]): < 25%; pest or weed control at 100 ppm (Septoria tritici—SEPTTR; [9]): 25 to 74%; pest or weed control at 100 ppm [8, 9]: < 25%
COc1ccnc(C(=O)N[C@H]2COC(=O)[C@H](Cc3ccccc3)[C@@H](OC(=O)C(C)C)[C@H](C)OC2=O)c1OC(=O)COCc1ccccc1 [Compound 656] | > 80 | < 80 | < 80 | < 80 | < 25 | < 80 | > 80 | – | – | – | PUCCRT in vivo 1 Day Protectant [7, 12]: + +; pest or weed control at 100 ppm (Erysiphe graminis—ERYSGT; [12]): < 25%; SEPTTR in vivo 1 Day Protectant (Septoria tritici—SEPTTR; [12]): + +; LEPTNO in vivo 1 Day Protectant [8, 12]: + +
COc1ccnc(C(=O)N[C@@H]2CC(C)(C)C[C@](C)(C(=O)N(C)CCc3ccccc3)C2)c1O [Compound 263] | – | – | – | – | – | – | – | – | – | – | PYRIOR in vitro Growth Inhibition ([1]; 25 ppm in growth medium): − (less than 80% growth inhibition); RHIZSO in vitro Growth Inhibition [2]: − (key: +: at least 80% growth inhibition; −: less than 80% growth inhibition); SEPTTR in vitro Growth Inhibition ([3]; 25 ppm in growth medium): − (less than 80% growth inhibition); LEPTNO in vitro Growth Inhibition ([4]; 25 ppm in growth medium): − (less than 80% growth inhibition); USTIMA in vitro Growth Inhibition (Ustilago maydis (USTIMA)): − (key: +: at least 80% growth inhibition; −: less than 80% growth inhibition); PHYTIN in vitro Growth Inhibition ([5]; 25 ppm in growth medium): − (less than 80% growth inhibition); PHYTIN in vivo 1 Day Protectant ([6]; 100 ppm spray, 24 hour protectant, tomato, control of fungal infection vs untreated plants): − (<25% control of fungal infection); PUCCRT in vivo 1 Day Protectant [7, 10]: − (<25% control of fungal infection); ERYSGT in vivo 1 Day Protectant (Erysiphe graminis—ERYSGT; [10]): − (<25% control of fungal infection); SEPTTR in vivo 1 Day Protectant (Septoria tritici—SEPTTR; [10]): − (<25% control of fungal infection); LEPTNO in vivo 1 Day Protectant [8, 10]: + (25-74% control of fungal infection)
